Results reported in PubChem BioAssay (NCI).
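The concentration for 50% growth inhibition is given as GI50. At the TGI there is no net growth.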

Experiments:
Experiment in all cases: growth of human tumour cells (NCI), 384-well format
786-0 renal = system: 786-0 renal
HCC-2998 colon = system: HCC-2998 colon
SN12C renal = system: SN12C renal
NCI/ADR-RES ovarian = system: NCI/ADR-RES ovarian
SK-MEL-28 melanoma = system: SK-MEL-28 melanoma
KM12 colon = system: KM12 colon
SNB-75 CNS = system: SNB-75 CNS
UO-31 renal = system: UO-31 renal
MOLT-4 leukemia = system: MOLT-4 leukemia
NCI-H522 lung = system: NCI-H522 lung
SF-268 CNS = system: SF-268 CNS
PC-3 prostate = system: PC-3 prostate
M14 melanoma = system: M14 melanoma
HOP-92 NSCLC = system: HOP-92 NSCLC
MALME-3M melanoma = system: MALME-3M melanoma
HT29 colon = system: HT29 colon
K-562 leukemia = system: K-562 leukemia
RXF 393 renal = system: RXF 393 renal
UACC-62 melanoma = system: UACC-62 melanoma
DU-145 prostate = system: DU-145 prostate
IGROV1 ovarian = system: IGROV1 ovarian
MCF7 breast = system: MCF7 breast
SW-620 colon = system: SW-620 colon
ACHN renal = system: ACHN renal
MDA-MB-435 melanoma = system: MDA-MB-435 melanoma
MDA-MB-468 breast = system: MDA-MB-468 breast
HCT-15 colon = system: HCT-15 colon
TK-10 renal = system: TK-10 renal
HOP-62 NSCLC = system: HOP-62 NSCLC
MDA-MB-231 breast = system: MDA-MB-231 breast
A498 renal = system: A498 renal
CAKI-1 renal = system: CAKI-1 renal
UACC-257 melanoma = system: UACC-257 melanoma
NCI-H23 lung = system: NCI-H23 lung
NCI-H226 lung = system: NCI-H226 lung
RPMI-8226 leukemia = system: RPMI-8226 leukemia
OVCAR-3 ovarian = system: OVCAR-3 ovarian
OVCAR-5 ovarian = system: OVCAR-5 ovarian
SR leukemia = system: SR leukemia
LOX IMVI melanoma = system: LOX IMVI melanoma
SK-OV-3 ovarian = system: SK-OV-3 ovarian
HS 578T breast = system: HS 578T breast
CCRF-CEM leukemia = system: CCRF-CEM leukemia
OVCAR-8 ovarian = system: OVCAR-8 ovarian
SK-MEL-5 melanoma = system: SK-MEL-5 melanoma
A549 NSCLC = system: A549 NSCLC
HL-60(TB) leukemia = system: HL-60(TB) leukemia
OVCAR-4 ovarian = system: OVCAR-4 ovarian
SF-539 CNS = system: SF-539 CNS
SF-295 CNS = system: SF-295 CNS
BT-549 breast = system: BT-549 breast
COLO 205 colon = system: COLO 205 colon
EKVX NSCLC = system: EKVX NSCLC
NCI-H460 NSCLC = system: NCI-H460 NSCLC
NCI-H322M lung = system: NCI-H322M lung
T-47D breast = system: T-47D breast
SNB-19 CNS = system: SNB-19 CNS

SMILES: CC(=O)Nc1nc(C)c(-c2cc3c(c(S(C)(=O)=O)c2)C(=O)N([C@@H](C)C2CC2)C3)s1
- GI50 ([…]-0 renal): 34.7 µM
- TGI (786-0 renal): > 100 µM
- GI50 (HCC-2998 colon): 51.3 µM
- TGI (HCC-2998 colon): > 100 µM
- GI50 (SN12C renal): 25.1 µM
- TGI (SN12C renal): 91.3 µM
- GI50 (NCI/ADR-RES ovarian): 77.4 µM
- TGI (NCI/ADR-RES ovarian): > 100 µM
- GI50 (SK-MEL-28 melanoma): 22.8 µM
- TGI (SK-MEL-28 melanoma): > 100 µM
- GI50 (KM12 colon): 42.6 µM
- TGI (KM12 colon): > 100 µM
- GI50 (SNB-75 CNS): 28.6 µM
- TGI (SNB-75 CNS): > 100 µM
- GI50 (UO-31 renal): 31.6 µM
- TGI (UO-31 renal): > 100 µM
- GI50 (MOLT-4 leukemia): 17.5 µM
- TGI (MOLT-4 leukemia): 33.1 µM
- GI50 (NCI-H522 lung): 25.7 µM
- TGI (NCI-H522 lung): 78.2 µM
- GI50 (SF-268 CNS): 34.7 µM
- TGI (SF-268 CNS): > 100 µM
- GI50 (PC-3 prostate): 39.6 µM
- TGI (PC-3 prostate): > 100 µM
- GI50 (M14 melanoma): 31.7 µM
- TGI (M14 melanoma): > 100 µM
- GI50 (HOP-92 NSCLC): 32.1 µM
- TGI (HOP-92 NSCLC): > 100 µM
- GI50 (MALME-3M melanoma): 14.9 µM
- TGI (MALME-3M melanoma): 57.1 µM
- GI50 (HT29 colon): 29.8 µM
- TGI (HT29 colon): > 100 µM
- GI50 (K-562 leukemia): 29.1 µM
- TGI (K-562 leukemia): > 100 µM
- GI50 (RXF 393 renal): 30.9 µM
- TGI (RXF 393 renal): > 100 µM
- GI50 (UACC-62 melanoma): 29.1 µM
- TGI (UACC-62 melanoma): > 100 µM
- GI50 (DU-145 prostate): 34.9 µM
- TGI (DU-145 prostate): > 100 µM
- GI50 (IGROV1 ovarian): 22.6 µM
- TGI (IGROV1 ovarian): 54.8 µM
- GI50 (MCF7 breast): 24.6 µM
- TGI (MCF7 breast): > 100 µM
- GI50 (SW-620 colon): > 100 µM
- TGI (SW-620 colon): > 100 µM
- GI50 (ACHN renal): 31 µM
- TGI (ACHN renal): > 100 µM
- GI50 (MDA-MB-435 melanoma): 54.4 µM
- TGI (MDA-MB-435 melanoma): > 100 µM
- GI50 (MDA-MB-468 breast): 15.5 µM
- TGI (MDA-MB-468 breast): 45 µM
- GI50 (HCT-15 colon): 28.6 µM
- TGI (HCT-15 colon): 93.4 µM
- GI50 (TK-10 renal): 31.8 µM
- TGI (TK-10 renal): > 100 µM
- GI50 (HOP-62 NSCLC): 30.4 µM
- TGI (HOP-62 NSCLC): > 100 µM
- GI50 (MDA-MB-231 breast): 22.3 µM
- TGI (MDA-MB-231 breast): > 100 µM
- GI50 (A498 renal): 19.3 µM
- TGI (A498 renal): 80.4 µM
- GI50 (CAKI-1 renal): 25.5 µM
- TGI (CAKI-1 renal): 77.6 µM
- GI50 (UACC-257 melanoma): 27.2 µM
- TGI (UACC-257 melanoma): > 100 µM
- GI50 (NCI-H23 lung): 28.7 µM
- TGI (NCI-H23 lung): > 100 µM
- GI50 (NCI-H226 lung): 35.7 µM
- TGI (NCI-H226 lung): > 100 µM
- GI50 (RPMI-8226 leukemia): 19.9 µM
- TGI (RPMI-8226 leukemia): 40.8 µM
- GI50 (OVCAR-3 ovarian): 26.5 µM
- TGI (OVCAR-3 ovarian): > 100 µM
- GI50 (OVCAR-5 ovarian): 31.7 µM
- TGI (OVCAR-5 ovarian): > 100 µM
- GI50 (SR leukemia): 17.3 µM
- TGI (SR leukemia): 43.8 µM
- GI50 (LOX IMVI melanoma): 28.2 µM
- TGI (LOX IMVI melanoma): 86.3 µM
- GI50 (SK-OV-3 ovarian): 19.3 µM
- TGI (SK-OV-3 ovarian): 48.5 µM
- GI50 (HS 578T breast): 17.5 µM
- TGI (HS 578T breast): 51.4 µM
- GI50 (CCRF-CEM leukemia): 0.0269 µM
- TGI (CCRF-CEM leukemia): 11.7 µM
- GI50 (OVCAR-8 ovarian): 48 µM
- TGI (OVCAR-8 ovarian): > 100 µM
- GI50 (SK-MEL-5 melanoma): 15 µM
- TGI (SK-MEL-5 melanoma): 41.4 µM
- GI50 (A549 NSCLC): 33.6 µM
- TGI (A549 NSCLC): > 100 µM
- GI50 (HL-60(TB) leukemia): 13 µM
- TGI (HL-60(TB) leukemia): 33.3 µM
- GI50 (OVCAR-4 ovarian): 20.8 µM
- TGI (OVCAR-4 ovarian): 77 µM
- GI50 (SF-539 CNS): 31.5 µM
- TGI (SF-539 CNS): > 100 µM
- GI50 (SF-295 CNS): 27.9 µM
- TGI (SF-295 CNS): > 100 µM
- GI50 (BT-549 breast): 36.9 µM
- TGI (BT-549 breast): > 100 µM
- GI50 (COLO 205 colon): 38.8 µM
- TGI (COLO 205 colon): > 100 µM
- GI50 (EKVX NSCLC): 42.1 µM
- TGI (EKVX NSCLC): > 100 µM
- GI50 (NCI-H460 NSCLC): 30 µM
- TGI (NCI-H460 NSCLC): > 100 µM
- GI50 (NCI-H322M lung): 30.3 µM
- TGI (NCI-H322M lung): > 100 µM
- GI50 (T-47D breast): 6.04 µM
- TGI (T-47D breast): 37.3 µM
- GI50 (SNB-19 CNS): 82.2 µM
- TGI (SNB-19 CNS): > 100 µM
